These are literature values, as cited in patent US7815936B2, “Use of granular materials based on pyrogenically produced silicon dioxide in pharmaceutical compositions” (Evonik Degussa GmbH, priority 2001, dated 2010).

The conditions of the series: pure active constituent in water, reached only after shaking over several days.

In the case of `C#C[C@]1(O)CC[C@H]2[C@@H]3CCc4cc(O)ccc4[C@H]3CC[C@@]21C` [ethinyl oestradiol], the saturation equilibrium value is 1.1 mg/100 ml.
